Consider 15 compounds from patent US20190330224A1, “ACC INHIBITORS AND USES THEREOF” (Gilead Apollo, LLC, priority 2015, published 2019).

The target in one assay is Fungal ACC2 (UniProt Q00955). The note with it: read-out: Fungal ACC2 (IC50, in vitro ACC2 inhibition).
The target in the next assay is Human ACC2 (Homo sapiens, UniProt O00763). In words: In vitro ACC2 inhibition assay (ADP-Glo), human ACC2. Type of assay: biochemical. As to conditions: 5 nM ACC2, 20 μM ATP, 20 μM acetyl-CoA.
The test system of the next assay is C. albicans ATCC 90028. In words: Anti-Fungal Activity Assay (broth microtiter MIC), C. albicans. In kind it is cell-based, Candida albicans. As to conditions: Candida albicans, ATCC90028, 48 h, 3 replicates; MIC recorded at 48 h; read-out: MIC C. albicans ATCC 90028. In a few lines: (§1)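 Broth microdilution per CLSI M27-A3 in RPMI 1640+MOPS, inoculum from overnight Sabouraud dextrose agar colonies at 35° C; compounds from 1 mg/mL DMSO stocks. MIC read visually against growth control at 48 h, with an added 24 h reading for soraphen.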

The subject of assay [1] is C. parapsilosis ATCC 22019. In words: Anti-Fungal Activity Assay (broth microtiter MIC), C. parapsilosis. In kind it is cell-based, Candida parapsilosis. The note with it: Lodderomyces parapsilosis, ATCC22019, 48 h, 3 replicates; MIC recorded at 48 h; read-out: MIC C. parapsilosis ATCC 22019. In a few lines: as §1
The next assay has as its system C. krusei ATCC 6258. In words: Anti-Fungal Activity Assay (broth microtiter MIC), C. krusei. Type of assay: cell-based, Candida krusei. The note with it: Pichia kudriavzevii, ATCC6258, 48 h, 3 replicates; MIC recorded at 48 h; read-out: MIC C. krusei ATCC 6258. In a few lines:
as §1

Broadly, the IC50 is the midpoint of a concentration-inhibition curve. A word on the MIC: it is the lowest concentration found to suppress growth.

Converted amounts (≈) assume the structure as drawn.

Sequence of Fungal ACC2 (Q00955 whole entry): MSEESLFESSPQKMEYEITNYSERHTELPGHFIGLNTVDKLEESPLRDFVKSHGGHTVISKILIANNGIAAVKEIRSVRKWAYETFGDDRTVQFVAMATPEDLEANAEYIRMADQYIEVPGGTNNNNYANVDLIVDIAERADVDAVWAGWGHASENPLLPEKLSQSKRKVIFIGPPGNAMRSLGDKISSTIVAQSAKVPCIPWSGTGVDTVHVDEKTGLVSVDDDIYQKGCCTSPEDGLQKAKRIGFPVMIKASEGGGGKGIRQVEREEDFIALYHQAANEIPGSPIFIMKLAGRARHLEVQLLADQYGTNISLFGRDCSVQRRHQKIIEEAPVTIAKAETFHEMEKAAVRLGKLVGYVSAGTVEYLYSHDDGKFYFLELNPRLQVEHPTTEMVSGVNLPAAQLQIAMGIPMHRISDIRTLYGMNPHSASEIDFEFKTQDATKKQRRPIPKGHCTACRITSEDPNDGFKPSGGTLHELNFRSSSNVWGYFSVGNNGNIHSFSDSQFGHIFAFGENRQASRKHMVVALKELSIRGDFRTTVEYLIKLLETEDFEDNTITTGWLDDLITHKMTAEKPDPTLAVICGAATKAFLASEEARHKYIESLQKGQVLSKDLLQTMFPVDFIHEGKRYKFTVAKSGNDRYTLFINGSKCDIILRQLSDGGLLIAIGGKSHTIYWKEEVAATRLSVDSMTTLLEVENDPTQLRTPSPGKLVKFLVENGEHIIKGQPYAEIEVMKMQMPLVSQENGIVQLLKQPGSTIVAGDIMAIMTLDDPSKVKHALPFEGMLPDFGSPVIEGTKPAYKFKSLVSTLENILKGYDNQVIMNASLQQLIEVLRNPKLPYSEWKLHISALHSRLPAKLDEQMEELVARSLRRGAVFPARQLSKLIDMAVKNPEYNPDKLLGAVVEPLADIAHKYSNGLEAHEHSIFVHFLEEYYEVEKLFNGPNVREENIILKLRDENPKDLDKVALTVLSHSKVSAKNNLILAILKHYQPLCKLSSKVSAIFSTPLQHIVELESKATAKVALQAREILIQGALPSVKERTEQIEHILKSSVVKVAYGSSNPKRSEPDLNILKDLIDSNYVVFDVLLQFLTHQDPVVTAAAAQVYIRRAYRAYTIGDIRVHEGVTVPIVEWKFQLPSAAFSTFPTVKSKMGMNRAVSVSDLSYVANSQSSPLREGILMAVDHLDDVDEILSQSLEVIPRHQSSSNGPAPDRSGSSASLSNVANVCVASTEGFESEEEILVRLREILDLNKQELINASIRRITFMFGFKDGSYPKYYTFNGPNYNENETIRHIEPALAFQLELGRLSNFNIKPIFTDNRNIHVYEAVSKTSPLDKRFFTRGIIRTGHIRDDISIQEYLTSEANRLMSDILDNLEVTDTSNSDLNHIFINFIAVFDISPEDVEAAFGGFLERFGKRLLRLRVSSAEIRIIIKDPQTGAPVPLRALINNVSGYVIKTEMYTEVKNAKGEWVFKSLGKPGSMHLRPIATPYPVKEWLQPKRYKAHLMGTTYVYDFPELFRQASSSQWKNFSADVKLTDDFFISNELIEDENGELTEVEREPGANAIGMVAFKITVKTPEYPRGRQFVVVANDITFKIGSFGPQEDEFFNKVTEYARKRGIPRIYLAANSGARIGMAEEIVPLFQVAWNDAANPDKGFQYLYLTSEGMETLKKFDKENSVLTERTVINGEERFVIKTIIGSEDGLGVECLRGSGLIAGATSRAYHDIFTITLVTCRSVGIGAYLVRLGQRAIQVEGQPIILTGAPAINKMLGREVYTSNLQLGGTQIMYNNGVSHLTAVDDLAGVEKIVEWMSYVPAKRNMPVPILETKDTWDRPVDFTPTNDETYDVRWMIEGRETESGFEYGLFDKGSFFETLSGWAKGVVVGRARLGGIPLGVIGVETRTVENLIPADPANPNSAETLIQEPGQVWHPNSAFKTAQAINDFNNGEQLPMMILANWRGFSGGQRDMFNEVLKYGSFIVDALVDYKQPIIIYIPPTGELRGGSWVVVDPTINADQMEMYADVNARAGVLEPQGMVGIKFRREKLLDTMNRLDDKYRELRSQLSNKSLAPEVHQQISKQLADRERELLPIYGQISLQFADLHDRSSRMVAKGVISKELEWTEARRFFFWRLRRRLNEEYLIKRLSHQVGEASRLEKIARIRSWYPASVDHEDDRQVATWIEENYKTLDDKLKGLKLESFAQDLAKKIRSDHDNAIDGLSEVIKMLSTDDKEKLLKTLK
Sequence of Human ACC2 (O00763 whole entry): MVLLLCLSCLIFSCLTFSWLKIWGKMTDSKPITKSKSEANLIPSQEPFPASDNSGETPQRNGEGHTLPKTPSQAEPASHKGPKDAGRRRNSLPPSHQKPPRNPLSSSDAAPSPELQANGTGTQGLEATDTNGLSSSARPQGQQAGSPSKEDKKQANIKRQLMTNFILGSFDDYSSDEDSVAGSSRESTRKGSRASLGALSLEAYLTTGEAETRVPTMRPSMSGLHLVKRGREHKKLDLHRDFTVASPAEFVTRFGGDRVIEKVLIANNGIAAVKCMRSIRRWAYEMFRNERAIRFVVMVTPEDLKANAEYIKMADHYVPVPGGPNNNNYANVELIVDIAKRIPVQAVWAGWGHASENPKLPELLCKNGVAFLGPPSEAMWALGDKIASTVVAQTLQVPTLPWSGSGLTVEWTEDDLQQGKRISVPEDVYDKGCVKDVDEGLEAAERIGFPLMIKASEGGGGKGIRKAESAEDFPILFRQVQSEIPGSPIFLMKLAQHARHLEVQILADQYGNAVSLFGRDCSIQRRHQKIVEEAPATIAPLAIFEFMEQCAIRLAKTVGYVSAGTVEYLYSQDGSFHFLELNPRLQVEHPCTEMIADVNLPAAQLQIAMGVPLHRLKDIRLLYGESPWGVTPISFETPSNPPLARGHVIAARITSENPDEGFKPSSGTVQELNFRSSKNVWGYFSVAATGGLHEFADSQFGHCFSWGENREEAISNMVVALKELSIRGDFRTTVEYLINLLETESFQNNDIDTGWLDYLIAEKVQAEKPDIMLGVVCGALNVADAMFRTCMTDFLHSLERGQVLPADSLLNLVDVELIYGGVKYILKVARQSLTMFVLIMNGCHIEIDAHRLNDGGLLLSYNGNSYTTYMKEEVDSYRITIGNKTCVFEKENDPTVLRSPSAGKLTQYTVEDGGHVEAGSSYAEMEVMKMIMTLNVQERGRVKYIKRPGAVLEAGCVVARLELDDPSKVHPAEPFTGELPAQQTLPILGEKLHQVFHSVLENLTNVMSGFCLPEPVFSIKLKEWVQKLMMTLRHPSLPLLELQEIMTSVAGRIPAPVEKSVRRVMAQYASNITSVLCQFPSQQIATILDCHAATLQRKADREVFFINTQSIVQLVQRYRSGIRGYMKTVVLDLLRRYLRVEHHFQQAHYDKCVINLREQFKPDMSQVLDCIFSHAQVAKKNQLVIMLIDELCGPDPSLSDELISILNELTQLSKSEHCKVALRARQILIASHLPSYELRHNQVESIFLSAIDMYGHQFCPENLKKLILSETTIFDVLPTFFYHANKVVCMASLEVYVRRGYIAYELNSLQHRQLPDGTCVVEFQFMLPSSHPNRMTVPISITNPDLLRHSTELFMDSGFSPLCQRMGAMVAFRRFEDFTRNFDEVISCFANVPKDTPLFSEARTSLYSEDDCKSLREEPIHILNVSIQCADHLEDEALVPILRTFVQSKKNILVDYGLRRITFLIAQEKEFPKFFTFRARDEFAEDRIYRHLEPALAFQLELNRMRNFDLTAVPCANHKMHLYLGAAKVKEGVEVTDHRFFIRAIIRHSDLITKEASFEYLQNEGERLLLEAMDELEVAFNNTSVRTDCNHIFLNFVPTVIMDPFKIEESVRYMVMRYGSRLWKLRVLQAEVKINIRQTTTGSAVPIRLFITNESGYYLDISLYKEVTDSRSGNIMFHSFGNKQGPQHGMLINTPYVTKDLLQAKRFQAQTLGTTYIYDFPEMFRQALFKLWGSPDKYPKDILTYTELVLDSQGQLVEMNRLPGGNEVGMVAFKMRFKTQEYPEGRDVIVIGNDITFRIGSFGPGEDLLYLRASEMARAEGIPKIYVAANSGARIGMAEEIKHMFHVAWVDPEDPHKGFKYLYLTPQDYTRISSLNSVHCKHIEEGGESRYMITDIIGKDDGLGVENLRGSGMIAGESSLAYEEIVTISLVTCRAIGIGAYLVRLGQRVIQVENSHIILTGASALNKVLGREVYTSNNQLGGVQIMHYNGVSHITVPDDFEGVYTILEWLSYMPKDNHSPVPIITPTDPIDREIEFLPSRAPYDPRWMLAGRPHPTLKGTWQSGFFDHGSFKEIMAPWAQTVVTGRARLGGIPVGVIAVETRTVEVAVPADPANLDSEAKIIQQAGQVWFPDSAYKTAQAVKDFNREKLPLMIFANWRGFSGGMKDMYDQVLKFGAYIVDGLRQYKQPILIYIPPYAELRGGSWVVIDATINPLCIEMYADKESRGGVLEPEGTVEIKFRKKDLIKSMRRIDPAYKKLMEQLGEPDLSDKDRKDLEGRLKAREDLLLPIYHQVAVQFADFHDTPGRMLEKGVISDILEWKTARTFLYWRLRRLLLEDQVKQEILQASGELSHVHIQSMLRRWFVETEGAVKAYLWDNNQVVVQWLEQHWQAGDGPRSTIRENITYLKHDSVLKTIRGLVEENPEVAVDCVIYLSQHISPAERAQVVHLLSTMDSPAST

In the case of `COc1ccc(F)cc1[C@H](Cn1c(=O)n([C@H]2CCN(C(=O)C(C)C)C2)c(=O)c2c(C)c(-n3nccn3)sc21)OCCO` [Compound I-97, 1-((R)-2-(5-fluoro-2-methoxyphenyl)-2-(2-hydroxy-ethoxy)ethyl)-3-((S)-1-isobutyrylpyrrolidin-3-yl)-5-methyl-6-(2H-1,2,3-triazol-2-yl)thieno[2,3-d]pyrimidine-2,4(1H,3H)-dione], the results for the half-inhibitory concentration (IC50) on Fungal ACC2 and on Human ACC2 were 0.7 to 2 nM and 10 to 100 nM, respectively. The minimal inhibitory concentration (MIC) (with C. albicans ATCC 90028; in assay [1]; in the assay on C. krusei ATCC 6258) was 2.1 to 4 µg/mL (≈ 3.5 to 6.66 µM) in each case.

For `COCCO[C@@H](Cn1c(=O)n(CCN2CCCCC2=O)c(=O)c2c(C)c(-n3nccn3)sc21)c1cc(F)ccc1OC` [Compound I-98, (R)-1-(2-(S-fluoro-2-methoxyphenyl)-2-(2-methoxy-ethoxy)ethyl)-5-methyl-3-(2-(2-oxopiperidin-1-yl)ethyl)-6-(2H-1,2,3-triazol-2-yl)thieno[2,3-d]pyrimidine-2,4(1H3H)-dione], the half-inhibitory concentration (IC50) on Fungal ACC2 lay in the range of 2 to 10 nM; against Human ACC2, 10 to 100 nM. Besides, the MIC (in the assay with C. albicans ATCC 90028; in assay [1]; in the assay on C. krusei ATCC 6258) was 2.1 to 4 µg/mL (≈ 3.5 to 6.66 µM) each time.

As to `COCCO[C@@H](Cn1c(=O)n(CCN2CCCC2=O)c(=O)c2c(C)c(-n3nccn3)sc21)c1cc(F)ccc1OC` [Compound I-99, (R)-1-(2-(5-fluoro-2-methoxyphenyl)-2-(2-methoxy-ethoxy)ethyl)-5-methyl-3-(2-(2-oxopyrrolidin-1-yl)ethyl)-6-(2H-1,2,3-triazol-2-yl)thieno[2,3-d]pyrimidine-2,4(1H,3H)-dione], the IC50 on Fungal ACC2 was 0.7 to 2 nM; against Human ACC2, 10 to 100 nM. For the same compound, the minimal inhibitory concentration (MIC) (with C. albicans ATCC 90028; in assay [1]; with C. krusei ATCC 6258) was 2.1 to 4 µg/mL (≈ 3.58 to 6.82 µM) each time.

For the compound `COCCO[C@@H](Cn1c(=O)n(CCN2CCCNC2=O)c(=O)c2c(C)c(-n3nccn3)sc21)c1cc(F)ccc1OC` [Compound I-100, (R)-1-(2-(5-fluoro-2-methoxyphenyl)-2-(2-methoxy-ethoxy)ethyl)-5-methyl-3-(2-(2-oxotetrahydropyrimidin-1 (2H)-yl)ethyl)-6-(2H-1,2,3-triazol-2-yl)thieno[2,3-d]pyrimidine-2,4(1H,3H)-dione], the half-maximal inhibitory concentration (IC50) at Fungal ACC2 was 2 to 10 nM; against Human ACC2, 10 to 100 nM. In addition, the MIC (in the assay with C. albicans ATCC 90028; in assay [1]; with C. krusei ATCC 6258) was 2.1 to 4 µg/mL (≈ 3.49 to 6.65 µM) each time.

As to `COCCO[C@@H](COc1nc2sc(-n3nccn3)c(C)c2c(=O)n1[C@@H]1CCN(C(=O)C(C)C)C1)c1cc(F)ccc1OC` [Compound I-101, 2-((R)-2-(5-fluoro-2-methoxyphenyl)-2-(2-methoxy-ethoxy)ethoxy)-3-((R)-1-isobutyrylpyrrolidin-3-yl)-5-methyl-6-(2H-1,2,3-triazol-2-yl)thieno[2,3-d]pyrimidin-4(3H)-one], the IC50 is 10 to 100 nM at Fungal ACC2 and above 1000 nM on Human ACC2. Moreover, the MIC (in the assay with C. albicans ATCC 90028; in assay [1]; with C. krusei ATCC 6258) was 2.1 to 4 µg/mL (≈ 3.42 to 6.51 µM) each time.

`COc1ccc(F)cc1[C@H](COc1nc2sc(-n3nccn3)c(C)c2c(=O)n1[C@H]1CNC(=O)C1)OCCO` [Compound I-102, 2-((R)-2-(5-fluoro-2-methoxyphenyl)-2-(2-hydroxy-ethoxy)ethoxy)-5-methyl-3-((R)-5-oxopyrrolidin-3-yl)-6-(2H-1,2,3-triazol-2-yl)thieno[2,3-d]pyrimidin-4(3H)-one]: the IC50 on Fungal ACC2 is 10 to 100 nM; against Human ACC2 it was above 1000 nM. The minimum inhibitory concentration (MIC) (in the assay on C. albicans ATCC 90028; in assay [1]; in the assay on C. krusei ATCC 6258) was 2.1 to 4 µg/mL (≈ 3.86 to 7.35 µM) each time.

For the compound `COc1ccc(F)cc1[C@H](COc1nc2sc(-n3nccn3)c(C)c2c(=O)n1[C@@H]1CNC(=O)C1)OCCO` [Compound I-103, 2-((R)-2-(5-fluoro-2-methoxyphenyl)-2-(2-hydroxy-ethoxy)ethoxy)-5-methyl-3-((S)-5-oxopyrrolidin-3-yl)-6-(2H-1,2,3-triazol-2-yl)thieno[2,3-d]pyrimidin-4(3H)-one], the IC50 was 10 to 100 nM on Fungal ACC2 and above 1000 nM on Human ACC2. Further, the MIC (in the assay with C. albicans ATCC 90028; in assay [1]; in the assay with C. krusei ATCC 6258) was 2.1 to 4 µg/mL (≈ 3.86 to 7.35 µM) each time.

On to `COCCO[C@@H](Cn1c(=O)n([C@H]2CCN(C(C)C)C2=O)c(=O)c2c(C)c(-n3nccn3)sc21)c1cc(F)ccc1OC` [Compound I-104, 1-((R)-2-(5-fluoro-2-methoxyphenyl)-2-(2-methoxy-ethoxy)ethyl)-3-((S)-1-isopropyl-2-oxopyrrolidin-3-yl)-5-methyl-6-(2H-1,2,3-triazol-2-yl)thieno[2,3-d]pyrimidine-2,4(1H,3H)-dione], for which the half-maximal inhibitory concentration (IC50) lay within 0.7 to 2 nM on Fungal ACC2 and 10 to 100 nM at Human ACC2. In addition, the MIC (in the assay on C. albicans ATCC 90028; in assay [1]; with C. krusei ATCC 6258) was 2.1 to 4 µg/mL (≈ 3.5 to 6.66 µM) in each case.

In the case of `COCCO[C@@H](Cn1c(=O)n([C@@H]2CCN(C(C)C)C2=O)c(=O)c2c(C)c(-n3nccn3)sc21)c1cc(F)ccc1OC` [Compound I-105, 1-((R)-2-(5-fluoro-2-methoxyphenyl)-2-(2-methoxy-ethoxy)ethyl)-3-((R)-1-isopropyl-2-oxopyrrolidin-3-yl)-5-methyl-6-(2H-1,2,3-triazol-2-yl)thieno[2,3-d]pyrimidine-2,4(1H,3H)-dione], the IC50 lay within 2 to 10 nM on Fungal ACC2 and 10 to 100 nM against Human ACC2. Besides, the MIC (with C. albicans ATCC 90028; in assay [1]; in the assay with C. krusei ATCC 6258) was 2.1 to 4 µg/mL (≈ 3.5 to 6.66 µM) throughout.

As for `COc1ccc(F)cc1[C@H](COc1nc2sc(-n3nccn3)c(C)c2c(=O)n1[C@@H]1CC(=O)N(C)C1)OCCO` [Compound I-112, 2-((R)-2-(5-fluoro-2-methoxyphenyl)-2-(2-hydroxy-ethoxy)ethoxy)-5-methyl-3-((R)-1-methyl-5-oxopyrrolidin-3-yl)-6-(2H-1,2,3-triazol-2-yl)thieno[2,3-d]pyrimidin-4(3H)-one], the half-maximal inhibitory concentration (IC50) was 10 to 100 nM on Fungal ACC2 and above 1000 nM against Human ACC2. The MIC (in the assay on C. albicans ATCC 90028; in assay [1]; with C. krusei ATCC 6258) was 2.1 to 4 µg/mL (≈ 3.76 to 7.16 µM) throughout.

Take `COCCO[C@@H](Cn1c(=O)n([C@@]2(C)CNC(=O)C2)c(=O)c2c(C)c(-n3nccn3)sc21)c1cc(F)ccc1OC` [Compound I-114, 1-((R)-2-(5-fluoro-2-methoxyphenyl)-2-(2-methoxyethoxy)ethyl)-5-methyl-3-((R)-3-methyl-5-oxopyrrolidin-3-yl)-6-(2H-1,2,3-triazol-2-yl)thieno[2,3-d]pyrimidine-2,4(1H,3H)-dione]: the IC50 on Fungal ACC2 was 2 to 10 nM; on Human ACC2 it was 10 to 100 nM. The minimum inhibitory concentration (MIC) (with C. albicans ATCC 90028; in assay [1]; in the assay on C. krusei ATCC 6258) was 2.1 to 4 µg/mL (≈ 3.67 to 6.99 µM) each time.

In the case of `COCCO[C@@H](Cn1c(=O)n([C@]2(C)CNC(=O)C2)c(=O)c2c(C)c(-n3nccn3)sc21)c1cc(F)ccc1OC` [Compound I-115, 1-((R)-2-(5-fluoro-2-methoxyphenyl)-2-(2-methoxy-ethoxy)ethyl)-5-methyl-3-((S)-3-methyl-5-oxopyrrolidin-3-yl)-6-(2H-1,2,3-triazol-2-yl)thieno[2,3-d]pyrimidine-24(1H,3H)-dione], the IC50 was 0.7 to 2 nM on Fungal ACC2 and 10 to 100 nM on Human ACC2. In addition, the minimal inhibitory concentration (MIC) (with C. albicans ATCC 90028; in assay [1]; in the assay with C. krusei ATCC 6258) was 2.1 to 4 µg/mL (≈ 3.67 to 6.99 µM) throughout.

In the case of `COc1ccc(F)cc1[C@H](Cn1c(=O)n([C@H]2CCCN(C)C2=O)c(=O)c2c(C)c(-n3nccn3)sc21)OCCC#N` [Compound I-116, 3-((R)-1-(5-fluoro-2-methoxyphenyl)-2-(5-methyl-3-((S)-1-methyl-2-oxopiperidin-3-yl)-2,4-dioxo-6-(2H-1,2,3-triazol-2-yl)-3,4-dihydrothieno[2,3-d]pyrimidin-1(2H)-yl)ethoxy)propanenitrile], the IC50 fell in the range of 0.7 to 2 nM at Fungal ACC2 and 10 to 100 nM against Human ACC2. Further, the minimum inhibitory concentration (MIC) (with C. albicans ATCC 90028; in assay [1]; in the assay on C. krusei ATCC 6258) was 2.1 to 4 µg/mL (≈ 3.61 to 6.88 µM) each time.

`COc1ccc(F)cc1[C@H](Cn1c(=O)n([C@@H]2CCCN(C)C2=O)c(=O)c2c(C)c(-n3nccn3)sc21)OCCC#N` [Compound I-117, 3-((R)-1-(5-fluoro-2-methoxyphenyl)-2-(5-methyl-3-((R)-1-methyl-2-oxopiperidin-3-yl)-2,4-dioxo-6-(2H-1,2,3-triazol-2-yl)-3,4-dihydrothieno[2,3-d]pyrimidin-1(2H)-yl)ethoxy)propanenitrile]: the IC50 on Fungal ACC2 was in the range of 0.7 to 2 nM; against Human ACC2, 2 to 10 nM. The minimal inhibitory concentration (MIC) (in the assay on C. albicans ATCC 90028; in assay [1]; in the assay on C. krusei ATCC 6258) was 2.1 to 4 µg/mL (≈ 3.61 to 6.88 µM) in each case.

Consider `COc1ccc(F)cc1[C@H](Cn1c(=O)n([C@@]2(C)CNC(=O)C2)c(=O)c2c(C)c(-n3nccn3)sc21)OCCO` [Compound I-118, 1-((R)-2-(5-fluoro-2-methoxyphenyl)-2-(2-hydroxy-ethoxy)ethyl)-5-methyl-3-((R)-3-methyl-5-oxopyrrolidin-3-yl)-6-(2H-1,2,3-triazol-2-yl)thieno[2,3-d]pyrimidine-2,4(1H,3H)-dione], for which the results for the IC50 on Fungal ACC2 and on Human ACC2 were 2 to 10 nM and 10 to 100 nM, respectively. Further, the MIC (with C. albicans ATCC 90028; in assay [1]; in the assay on C. krusei ATCC 6258) was 2.1 to 4 µg/mL (≈ 3.76 to 7.16 µM) throughout.
